Values quoted from earlier work, collected in US20180110725A1, “COMPOSITIONS, METHODS AND KITS FOR THE SAFE INHALED DELIVERY OF TARGETED OPIOIDS FOR THE TREATMENT OF PAIN AND ADDICTION” (Somniferum Labs LLC, priority 2016, published 2018).

Key:
[1] = room temperature
[2] = target: μ-1 opioid receptor (Homo sapiens, UniProt P35372); settings: Wittwer and Kern, 2006
[3] = in vivo

Sequence of μ-1 opioid receptor (P35372 whole entry): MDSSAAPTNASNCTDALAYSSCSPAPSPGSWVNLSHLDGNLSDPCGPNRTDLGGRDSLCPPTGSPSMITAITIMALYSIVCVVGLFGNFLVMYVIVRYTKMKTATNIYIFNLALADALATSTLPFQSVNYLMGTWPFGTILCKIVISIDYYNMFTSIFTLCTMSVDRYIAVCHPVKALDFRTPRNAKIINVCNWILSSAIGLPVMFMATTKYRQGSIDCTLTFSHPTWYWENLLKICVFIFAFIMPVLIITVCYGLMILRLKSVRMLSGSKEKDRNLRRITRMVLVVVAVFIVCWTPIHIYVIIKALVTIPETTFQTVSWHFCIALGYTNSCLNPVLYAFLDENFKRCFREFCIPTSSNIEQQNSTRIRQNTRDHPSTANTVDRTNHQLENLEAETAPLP

Row | Molecule | duration of activity [3] | also measured
1 | Br.CN1CC[C@]23c4c5ccc(O)c4O[C@H]2[C@@H](O[C@@H]2O[C@H](C(=O)O)[C@@H](O)[C@H](O)[C@H]2O)C=C[C@H]3[C@H]1C5 [Morphine-6 glucuronide bromide] |  | storage time with little or no degradation [1]: up to 6 years
2 | CN1CC[C@]23c4c5ccc(O)c4O[C@H]2[C@@H](O[C@@H]2O[C@H](C(=O)O)[C@@H](O)[C@H](O)[C@H]2O)C=C[C@H]3[C@H]1C5 [Morphine-6-glucuronide] |  | potency relative to morphine [2]: higher potency than morphine
3 | CC(=O)O.CN1CCC23c4c5ccc(O)c4OC2C(OC2OC(C(=O)O)C(O)C(O)C2O)C=CC3C1C5 (stereo not shown) [morphine-6-glucuronide acetate] | relatively long duration of activity | 
4 | morphine-6-glucuronide sulfate | relatively long duration of activity | 
